Assay results published in patent publication US6225329A, “Modulators of protein tyrosine phosphatases (PTPases)” (Novo Nordisk A/S, priority 1998, dated 2001).

Columns and labels:
B cell = conditions: compared to T cells; cited from earlier work
PTP1B = molecular target: T1, PTP1B (Homo sapiens, UniProt P18031); test: Inhibition of classical PTP1B (truncated, first 321 amino acids) with p-nitrophenyl phosphate substrate; assay type: biochemical; conditions: p-nitrophenyl phosphate 0.16 to 10 mM; 100 mM sodium acetate pH 5.5; 25° C., 60 minutes
T1 construct: a truncated form of PTP1B (corresponding to the first 321 amino acids); made in house; host or cells: E. coli
T1 sequence (P18031 1-321): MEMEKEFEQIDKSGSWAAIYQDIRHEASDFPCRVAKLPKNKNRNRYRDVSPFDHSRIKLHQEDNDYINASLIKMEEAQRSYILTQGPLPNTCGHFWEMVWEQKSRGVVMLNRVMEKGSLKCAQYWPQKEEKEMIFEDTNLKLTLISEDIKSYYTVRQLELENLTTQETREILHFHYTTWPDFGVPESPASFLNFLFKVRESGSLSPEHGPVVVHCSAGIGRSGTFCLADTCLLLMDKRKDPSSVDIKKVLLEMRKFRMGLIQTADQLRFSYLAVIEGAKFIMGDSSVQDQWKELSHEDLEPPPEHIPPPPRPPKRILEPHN
Experimental: The assay conditions are as follows. […] The buffer used was 100 mM sodium acetate pH 5.5, 50 mM sodium chloride, 0.1% (w/v) bovine serum albumin and 5 mM dithiothreitol (total volume […]). The reaction was started by addition of the enzyme and carried out in microtiter plates at 25° C. for 60 minutes. The reactions are stopped by addition of NaOH. […] Inhibition is expressed as Ki values in μM.

[1] = osteoporotics; cited from earlier work
[2] = system: osteoblastic acid phosphatase; conditions: mitogenic concentrations of fluoride; cited from earlier work
osteoblast = conditions: cited from earlier work
[3] = system: osteoblast-like cell line UMR106; conditions: cited from earlier work; for stimulation of cell growth relative to vanadate: compared with vanadate
skeletal muscle = conditions: cited from earlier work
adipocytes = conditions: cited from earlier work
platelets = conditions: cited from earlier work
SSTR1 = SSTR1 stably expressed in CHO-K1 cells; pertussis toxin-sensitive; cited from earlier work

Compound: Cc1occc(=O)c1[O-].Cc1occc(=O)c1[O-].[O]=[V+2] [BMLOV]
- B cell selective apoptosis (B cell): apparent B cell selective apoptosis

Compound: O=C(O)C(=O)Nc1cc2ccccc2cc1C(=O)O [Example 2, 3-(Oxalyl-amino)naphthalene-2-carboxylic acid]
- Ki (PTP1B): 9.9 µM

Compound: F [fluoride]
- spinal bone density [1]: increase spinal bone density in osteoporotics
- sensitivity of osteoblastic acid phosphatase [2]: highly sensitive

Compound: [O]=[V]([O-])([O-])[O-] [orthovanadate]
- osteoblast proliferation and matrix formation (osteoblast): appears to enhance osteoblast proliferation and matrix formation

Compound: [O]=[V]([O-])([O-])[O-] [vanadate]
- cell differentiation as measured by cell alkaline phosphatase activity ([3]; cell alkaline phosphatase activity): able to regulate the cell differentiation
- growth of UMR106 cells [3]: increased the growth

Compound: O=S(=O)([O-])[O-].[O]=[V+2] [vanadyl]
- growth of UMR106 cells [3]: increased the growth
- stimulation of cell growth relative to vanadate [3]: stronger stimulators of cell growth than vanadate

Compound: pervanadate
- insulin response when added to whole cells (skeletal muscle): almost full insulin response
- growth of UMR106 cells [3]: increased the growth
- stimulation of cell growth relative to vanadate [3]: stronger stimulators of cell growth than vanadate
- insulin response when added to whole cells (adipocytes): almost full insulin response
- tyrosine phosphorylation, secretion and aggregation of platelets (platelets): significant increase in tyrosine phosphorylation, secretion and aggregation

Compound: somatostatin
- stimulation of PTPase activity (SSTR1): can stimulate PTPase activity
